# Literature values in US7850997B2, “Dietary compositions and methods of enhancing lean body mass and exercise performance” (priority 2007, dated 2010).
# Experiments:
# [1] = compared with placebo; patients
# [2] = oral arginine 0.5 g/10 kg for one week, versus placebo; primary or precapillary secondary pulmonary hypertension
# [3] = after arginine 6 g/day for 10 days; 7 healthy males
# [4] = 6 g oral L-arginine for 3 days vs placebo; 25 patients with stable coronary artery disease
# [5] = oral L-arginine 6 g for 3 days; 22 patients with stable angina pectoris and healed myocardial infarction
compound,measurement,setting,value
"N=C(N)NCCCC(N)C(=O)O (stereo not shown) [arginine, 2-amino-5-guanidinovaleric acid]",forearm blood flow during forearm exercise,[1],significantly increased
same,mean pulmonary arterial pressure,[2],significantly decreased
same,pulmonary vascular resistance,[2],significantly decreased
same,flow-mediated vasodilation (FMV) after 4 and 6 h after oral fat load,[3],normalized
same,flow-mediated vasodilation (FMV) at 2 h after oral fat load,[3],significantly decreased
same,exercise duration,[4],significantly increased
same,exercise capacity,[5],increased
